PMC11364104, “Discovery of SARS-CoV-2 papain-like protease (PL^pro) inhibitors with efficacy in a murine infection model” (Science Advances, 2024)
Converted amounts (≈) assume the structure as drawn.

Assays:
[1] = test system: SARS-CoV-2 strain USA-WA1/2020; test: dNHBE (human airway epithelial) cell infection model; format: cell-based; settings: Severe acute respiratory syndrome coronavirus 2, Epithelial cell; dNHBE (human airway epithelial) cells; plaque assay 3 dpi
LogD = format: physicochemical
Thermodynamic solubility = format: physicochemical; settings: pH 7.4, aqueous buffer, thermodynamic from solid
Monkey pharmacokinetics = format: in vivo; settings: plasma, Male Cynomolgus Monkey, 1.0 mg/kg iv, solution, mean n=2
Description: from Vital River (Beijing, China) and were typically 7-9 weeks of age at the time of dosing.
During the pharmacokinetic studies all animals were housed individually. Access to food and water was provided ad libitum (i.e., subjects were dosed in the fed state). In the instances where oral (po) dose was administered in the fed state, with ad libitum access to food and water. Compounds were administered intravenously (iv) via the tail vein (n = 2) dosed as a solution (1 mg/kg, 3 ml/kg) or via oral gavage as a solution (10 mg/kg, 10 ml/kg). Dosing solutions were prepared immediately before dosing. The composition of each dosing vehicle […]
Serial blood samples were collected via the jugular vein cannula at predetermined timepoints after dosing. Animals were monitored for pain or distress throughout the study, with at least daily monitoring during normal husbandry prior to study start. At the completion of the study, animals were euthanized by overdose of inhaled carbon dioxide. Blood samples were collected into tubes containing K2EDTA and stored on ice until centrifugation to obtain plasma, which was stored frozen at - 20 °C or lower.
Dog pharmacokinetic studies were done at Pfizer (Groton, CT). All procedures performed on beagle dogs were in accordance with regulations and established guidelines and were reviewed and approved by an Institutional Animal Care and Use Committee through an ethical review process. Male Beagle dogs were purchased from Marshall Bioresources (North Rose, NY); subjects 3 years of age were used in pharmacokinetics studies. For each study (n=2), compounds were dosed iv by cephalic vein as a solution (0.5 mg/kg, 1 mL/kg) or via oral gavage as a suspension (3 mg/kg, 5 mL/kg). In the instances where oral (po) dose was administered in the fed state, dogs were fed a couple hours before dosing. In the instances where the IV dose was administered in the fasted state, dogs were fasted over night and fed 4 hours post dose. Subjects were monitored for pain or distress throughout the study followed by at least daily monitoring while off study. The iv dosing vehicle was optimized such that the compounds were in solution and stable for at least 24 h. Serial blood samples were collected via the jugular vein at predefined time points post-dose. […]
Monkey pharmacokinetic studies were conducted at Pfizer (Groton, CT). […] Subjects were monitored for pain or distress throughout the study followed by at least daily monitoring while off study. […]
Plasma samples were processed using protein precipitation with 50:50 acetonitrile: methanol containing terfenadine (5 ng/ml) as an internal standard followed by quantitation against a standard curve (0.1-1000 ng/ml) prepared in blank plasma. Quantitation of analyte in plasma samples was done using LC-MS/MS. […]

hCoV-OC43_PLpro2 = hCoV-OC43_PLpro2 (Human coronavirus OC43, UniProt P0C6X6); test: biochemical; parameters: species or system OC43-CoV
hCoV-OC43_PLpro2, sequence (P0C6X6 1631-1892): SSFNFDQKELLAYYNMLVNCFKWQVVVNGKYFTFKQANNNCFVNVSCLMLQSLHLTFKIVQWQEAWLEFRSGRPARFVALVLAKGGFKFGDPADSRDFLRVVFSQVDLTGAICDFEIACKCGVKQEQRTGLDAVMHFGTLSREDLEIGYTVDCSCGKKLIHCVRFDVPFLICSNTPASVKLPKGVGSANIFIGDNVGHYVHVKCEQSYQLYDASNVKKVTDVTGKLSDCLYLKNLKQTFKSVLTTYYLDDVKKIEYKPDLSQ

Human Cathepsin D = molecular target: T1, Human Cathepsin D (Homo sapiens, UniProt P07339); test: biochemical
T1 construct: assay run at Reaction Biology Corporation
T1 sequence (P07339 65-412): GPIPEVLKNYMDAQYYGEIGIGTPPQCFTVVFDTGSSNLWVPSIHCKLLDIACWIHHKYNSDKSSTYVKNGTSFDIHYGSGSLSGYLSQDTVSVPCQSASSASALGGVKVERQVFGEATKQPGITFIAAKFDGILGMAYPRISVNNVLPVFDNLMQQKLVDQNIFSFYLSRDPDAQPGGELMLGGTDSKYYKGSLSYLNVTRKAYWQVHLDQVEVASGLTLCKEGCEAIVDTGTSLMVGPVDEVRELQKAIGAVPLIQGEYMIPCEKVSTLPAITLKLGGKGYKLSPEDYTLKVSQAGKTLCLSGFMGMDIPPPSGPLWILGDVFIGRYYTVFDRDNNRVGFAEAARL

Human Cathepsin F = molecular target: T2, Human Cathepsin F (Homo sapiens, UniProt Q9UBX1); test: biochemical
T2 construct: assay run at BPS Bioscience

Human Elastase = molecular target: T3, Human Elastase (Homo sapiens, UniProt P08246); test: biochemical
T3 construct: Reaction Biology Corporation (ran the assay as a service)

Adenosine A2a = molecular target: T4, Adenosine A2a (Homo sapiens, UniProt P29274); test: CEREP functional agonism; format: cell-based; settings: 30 µM
T4 construct: purchased Eurofins Cerep

EGFR Kinase = molecular target: T5, EGFR Kinase (Homo sapiens, UniProt P00533); test: CEREP kinase inhibition; format: biochemical
T5 construct: purchased Eurofins Cerep
T5 sequence (P00533 25-1210): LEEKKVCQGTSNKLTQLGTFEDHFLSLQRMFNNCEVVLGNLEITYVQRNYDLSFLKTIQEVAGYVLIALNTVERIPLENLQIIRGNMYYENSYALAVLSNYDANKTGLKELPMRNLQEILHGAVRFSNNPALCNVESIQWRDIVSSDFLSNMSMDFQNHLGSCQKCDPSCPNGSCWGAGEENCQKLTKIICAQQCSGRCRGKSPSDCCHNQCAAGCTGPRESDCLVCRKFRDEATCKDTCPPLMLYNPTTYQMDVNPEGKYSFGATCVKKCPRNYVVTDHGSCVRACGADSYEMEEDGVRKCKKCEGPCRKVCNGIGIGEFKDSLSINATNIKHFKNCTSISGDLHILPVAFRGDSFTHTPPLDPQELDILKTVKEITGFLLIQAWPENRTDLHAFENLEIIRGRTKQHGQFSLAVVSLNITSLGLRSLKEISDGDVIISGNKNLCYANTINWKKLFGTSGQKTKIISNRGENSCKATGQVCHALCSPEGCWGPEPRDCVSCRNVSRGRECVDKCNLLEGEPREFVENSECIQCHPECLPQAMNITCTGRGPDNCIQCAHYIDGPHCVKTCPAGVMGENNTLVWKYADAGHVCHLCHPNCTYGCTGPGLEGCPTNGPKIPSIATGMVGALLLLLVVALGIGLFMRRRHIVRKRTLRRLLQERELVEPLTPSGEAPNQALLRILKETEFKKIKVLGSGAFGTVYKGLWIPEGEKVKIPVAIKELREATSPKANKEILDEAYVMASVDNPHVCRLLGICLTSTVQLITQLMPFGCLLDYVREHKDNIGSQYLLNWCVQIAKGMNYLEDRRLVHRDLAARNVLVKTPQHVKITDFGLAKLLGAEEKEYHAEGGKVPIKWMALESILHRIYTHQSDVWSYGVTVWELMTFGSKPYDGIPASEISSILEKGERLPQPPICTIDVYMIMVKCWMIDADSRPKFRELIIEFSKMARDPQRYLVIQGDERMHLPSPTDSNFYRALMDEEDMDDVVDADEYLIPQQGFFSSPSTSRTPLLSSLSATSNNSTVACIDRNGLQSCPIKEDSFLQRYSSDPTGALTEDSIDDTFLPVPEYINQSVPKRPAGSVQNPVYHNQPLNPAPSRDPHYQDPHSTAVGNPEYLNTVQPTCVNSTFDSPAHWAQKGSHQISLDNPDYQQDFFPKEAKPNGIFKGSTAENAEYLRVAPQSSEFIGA

Lck Kinase = molecular target: T6, Lck Kinase (Homo sapiens, UniProt P06239); test: CEREP kinase inhibition; format: biochemical
T6 construct: purchased Eurofins Cerep
T6 sequence (P06239 whole entry): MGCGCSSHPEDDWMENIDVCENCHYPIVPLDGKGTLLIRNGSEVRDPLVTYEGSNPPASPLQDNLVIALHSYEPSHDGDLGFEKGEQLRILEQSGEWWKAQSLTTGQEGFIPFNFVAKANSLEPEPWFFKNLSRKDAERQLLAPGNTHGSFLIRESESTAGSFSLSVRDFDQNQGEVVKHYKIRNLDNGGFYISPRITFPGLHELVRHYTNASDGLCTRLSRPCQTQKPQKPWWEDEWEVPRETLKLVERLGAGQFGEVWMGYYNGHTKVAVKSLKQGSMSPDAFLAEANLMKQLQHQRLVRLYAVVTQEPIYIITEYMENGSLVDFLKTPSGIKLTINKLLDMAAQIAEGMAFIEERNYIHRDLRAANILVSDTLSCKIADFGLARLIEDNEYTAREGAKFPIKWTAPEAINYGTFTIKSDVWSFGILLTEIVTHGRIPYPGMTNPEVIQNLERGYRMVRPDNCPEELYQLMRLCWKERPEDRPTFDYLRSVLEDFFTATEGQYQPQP

P38 MAP Kinase = molecular target: T7, P38 MAP Kinase (Homo sapiens, UniProt Q16539); test: CEREP kinase inhibition; format: biochemical
T7 construct: purchased Eurofins Cerep
T7 sequence (Q16539 whole entry): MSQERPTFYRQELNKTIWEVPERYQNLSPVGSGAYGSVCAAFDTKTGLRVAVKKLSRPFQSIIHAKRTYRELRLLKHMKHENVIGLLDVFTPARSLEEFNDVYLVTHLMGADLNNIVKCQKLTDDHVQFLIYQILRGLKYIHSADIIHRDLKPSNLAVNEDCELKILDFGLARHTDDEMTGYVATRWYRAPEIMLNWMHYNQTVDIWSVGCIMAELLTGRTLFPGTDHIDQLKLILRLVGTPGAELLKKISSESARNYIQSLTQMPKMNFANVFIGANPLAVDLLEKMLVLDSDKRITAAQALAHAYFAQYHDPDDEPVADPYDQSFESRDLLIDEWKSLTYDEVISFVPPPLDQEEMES

VEGFR2 Kinase = molecular target: T8, VEGFR2 Kinase (Homo sapiens, UniProt P35968); test: CEREP kinase inhibition; format: biochemical
T8 construct: purchased Eurofins Cerep
T8 sequence (P35968 20-1356): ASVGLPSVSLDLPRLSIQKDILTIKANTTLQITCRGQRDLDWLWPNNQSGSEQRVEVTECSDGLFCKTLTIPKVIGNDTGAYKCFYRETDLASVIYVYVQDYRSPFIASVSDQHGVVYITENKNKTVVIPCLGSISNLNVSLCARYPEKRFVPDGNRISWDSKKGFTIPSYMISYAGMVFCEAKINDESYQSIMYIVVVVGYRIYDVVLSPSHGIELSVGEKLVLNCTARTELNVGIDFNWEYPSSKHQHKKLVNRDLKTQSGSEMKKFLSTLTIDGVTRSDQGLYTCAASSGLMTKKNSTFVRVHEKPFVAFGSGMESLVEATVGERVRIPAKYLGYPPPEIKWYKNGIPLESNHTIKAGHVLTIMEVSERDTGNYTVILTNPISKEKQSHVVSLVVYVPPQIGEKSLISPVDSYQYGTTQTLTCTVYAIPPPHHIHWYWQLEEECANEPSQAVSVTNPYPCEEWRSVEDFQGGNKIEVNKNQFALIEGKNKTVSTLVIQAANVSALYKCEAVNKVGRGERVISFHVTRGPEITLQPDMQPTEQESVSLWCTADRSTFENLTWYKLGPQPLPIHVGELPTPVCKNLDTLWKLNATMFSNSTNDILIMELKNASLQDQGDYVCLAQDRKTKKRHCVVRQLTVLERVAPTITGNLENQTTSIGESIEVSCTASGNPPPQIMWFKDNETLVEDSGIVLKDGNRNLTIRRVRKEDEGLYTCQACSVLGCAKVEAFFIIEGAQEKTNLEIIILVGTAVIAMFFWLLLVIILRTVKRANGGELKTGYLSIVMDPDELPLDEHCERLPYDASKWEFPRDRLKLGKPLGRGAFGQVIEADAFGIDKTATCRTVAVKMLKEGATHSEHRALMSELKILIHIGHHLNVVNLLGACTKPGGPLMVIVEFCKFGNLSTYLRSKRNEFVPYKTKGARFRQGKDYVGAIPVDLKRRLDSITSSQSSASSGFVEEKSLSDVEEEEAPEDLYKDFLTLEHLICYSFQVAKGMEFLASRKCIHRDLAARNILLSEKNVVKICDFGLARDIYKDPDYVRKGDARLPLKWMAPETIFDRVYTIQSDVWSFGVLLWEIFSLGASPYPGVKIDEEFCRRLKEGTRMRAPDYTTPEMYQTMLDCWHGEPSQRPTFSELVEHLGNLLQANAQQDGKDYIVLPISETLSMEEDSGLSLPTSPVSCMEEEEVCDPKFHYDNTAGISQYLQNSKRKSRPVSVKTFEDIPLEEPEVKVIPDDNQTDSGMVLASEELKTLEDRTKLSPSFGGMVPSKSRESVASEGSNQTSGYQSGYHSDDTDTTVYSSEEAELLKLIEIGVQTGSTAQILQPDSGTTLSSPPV

[2] = molecular target: T9, Glucocorticoid Receptor (Binding) (Homo sapiens, UniProt P04150); test: CEREP NHR-binding
T9 construct: purchased Eurofins Cerep

[3] = test system: GABAa (benzodiazepine Site); test: CEREP ion channel-binding; settings: 30 µM
AMPA Receptor = test: CEREP ion channel-binding; settings: 30 µM
NMDA Receptor = test: CEREP ion channel-binding; settings: 30 µM
in vitro [4] = settings: male, cynomolgus monkey, plasma
in vitro [5] = settings: both, human, plasma
CYP1A2 = CYP1A2 (Homo sapiens, UniProt P05177); test: biochemical
CYP1A2, sequence (P05177 whole entry): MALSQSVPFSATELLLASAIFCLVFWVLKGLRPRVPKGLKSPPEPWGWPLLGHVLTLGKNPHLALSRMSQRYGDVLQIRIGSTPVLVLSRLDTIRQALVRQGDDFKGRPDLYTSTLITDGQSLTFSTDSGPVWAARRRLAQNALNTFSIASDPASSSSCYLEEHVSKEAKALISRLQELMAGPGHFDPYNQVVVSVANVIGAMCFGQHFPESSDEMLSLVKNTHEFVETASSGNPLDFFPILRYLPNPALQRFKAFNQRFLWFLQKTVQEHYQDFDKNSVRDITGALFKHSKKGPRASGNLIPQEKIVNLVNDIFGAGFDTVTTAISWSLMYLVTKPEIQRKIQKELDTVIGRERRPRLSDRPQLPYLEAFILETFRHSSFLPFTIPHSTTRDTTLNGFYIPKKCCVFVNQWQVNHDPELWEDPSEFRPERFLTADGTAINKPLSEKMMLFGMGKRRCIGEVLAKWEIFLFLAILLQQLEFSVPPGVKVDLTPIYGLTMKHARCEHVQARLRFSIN

CYP2C8 = CYP2C8 (Homo sapiens, UniProt P10632); test: biochemical
CYP2C8, sequence (P10632 whole entry): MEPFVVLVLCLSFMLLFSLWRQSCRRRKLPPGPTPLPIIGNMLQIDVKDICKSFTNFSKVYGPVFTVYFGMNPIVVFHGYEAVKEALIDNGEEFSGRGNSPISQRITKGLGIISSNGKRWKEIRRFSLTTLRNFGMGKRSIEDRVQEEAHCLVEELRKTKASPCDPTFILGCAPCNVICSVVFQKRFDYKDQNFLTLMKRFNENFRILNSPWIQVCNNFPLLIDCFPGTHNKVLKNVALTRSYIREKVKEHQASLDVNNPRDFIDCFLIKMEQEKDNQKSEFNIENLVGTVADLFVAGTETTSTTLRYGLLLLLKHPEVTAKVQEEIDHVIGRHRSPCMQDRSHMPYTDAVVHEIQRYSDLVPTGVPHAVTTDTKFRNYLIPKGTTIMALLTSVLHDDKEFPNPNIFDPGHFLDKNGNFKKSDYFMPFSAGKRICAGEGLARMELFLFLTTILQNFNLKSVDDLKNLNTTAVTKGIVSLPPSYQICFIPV

[6] = RRCK passive permeability; settings: dog, MDCK
[7] = Metabolic stability in cryopreserved human hepatocytes

SMILES: Cc1ccc(N2CCN(C)CC2)cc1C(=O)NC1(c2cc(-c3cnn(C)c3)nc3ccccc23)CC1 [Compound 4]
- EC50 [1]: 0.0139 µM
- EC90 [1]: 0.0567 µM
- logD (LogD): 2.5
- solubility thermodynamic (Thermodynamic solubility): 541 µM (≈ 260 µg/mL)
- AUC(0-inf) (Monkey pharmacokinetics): 1600 ng·h/mL
- half-life (Monkey pharmacokinetics): 3.56 h
- clearance (Monkey pharmacokinetics; read-out: CLp): 10.7 mL/min/kg
- Vd (Monkey pharmacokinetics; read-out: Vdss): 2.09 L/kg
- Ki (hCoV-OC43_PLpro2): > 10 µM
- activity on OC43 PL^pro (hCoV-OC43_PLpro2): nearly inactive
- IC50 (Human Cathepsin D): > 100 µM
- IC50 (Human Cathepsin F): > 100 µM
- IC50 (Human Elastase): > 100 µM
- % response (Adenosine A2a): 0%
- inhibition at 30 µM (EGFR Kinase): 9%
- inhibition at 30 µM (Lck Kinase): -1%
- inhibition at 30 µM (P38 MAP Kinase): 10%
- inhibition at 30 µM (VEGFR2 Kinase): 11%
- inhibition at 30 µM [2]: 2%
- % inhibition [3]: 7%
- % inhibition (AMPA Receptor): 13%
- % inhibition (NMDA Receptor): -2%
- fraction unbound (in vitro [4]): 0.101
- fraction unbound (in vitro [5]): 0.109
- IC50 (CYP1A2): 72.2 µM
- IC50 (CYP2C8): 76.1 µM
- Papp [6]: 31.4 ×10⁻⁶ cm/s
- hepatocyte CLint [7]: 8.84 µL/min/1e6 cells
